Measured values published in patent US20090247636A1, “AGENT FOR SUPPRESSION OF GASTRIC EMPTYING COMPRISING 4-HYDROXYISOLEUCINE” (AJINOMOTO CO., INC.,, priority 2006, published 2009).

Columns and labels:
gastric emptying = assay: Gastric emptying-suppressive action (phenol red test meal); format: in vivo, Sprague Dawley rats; conditions: 500 mg/kg oral, test meal 1 hour later, stomach isolated after 90 minutes, vs vehicle, p<0.05, FIG. 1
Protocol: Male Sprague Dawley rats (12 weeks of age, Charles River Laboratories Japan Inc.) (n=5) were used. After fasting for 20 hours, distilled water for injection (5 mL/kg) was orally administered to a vehicle group and 4-hydroxyisoleucine (500 mg/5 mL/kg) was orally administered to a 4-hydroxyisoleucine administration group. One hour later, a test meal (1.5% methylcellulose, 0.05% phenol red, 1.5 ml) was orally administered. After 90 minutes, the stomach was isolated under an ether anesthesia, the gastric contents were recovered and the remaining phenol red was quantified. A control group was prepared. After fasting for 20 hours, a test meal (1.5% methylcellulose, 0.05% phenol red, 1.5 mL) was orally administered. Immediately after administration of the test meal, the stomach was isolated under an ether anesthesia, the gastric contents were recovered and the remaining phenol red was quantified. The gastric emptying was calculated by the following formula.
Gastric emptying (%)=(1-phenol red amount of each individual/average phenol red amount of control group*)×100*:test meal alone was administered, n=2
The difference between the 4-hydroxyisoleucine (HIL) administration group and the distilled water for injection (vehicle) administration group was detected according to Student's t test, and p<0.05 was judged as significant.

insulin secretion = conditions: in vitro; cited from earlier work
[1] = in vivo; cited from earlier work
food intake = assay: Food intake suppressive action (cumulative feed intake); format: in vivo, Wistar rats; conditions: 500 mg/kg oral after fasting for 9 hours, vs vehicle, p<0.05, FIG. 2
Protocol: Male Wistar rats (7 weeks of age, Charles River Laboratories Japan Inc.) (n=5) were used. After fasting for 9 hours, distilled water for injection (5 mL/kg) or 4-hydroxyisoleucine (50, 150, 500 mg/5 mL/kg) was orally administered at 18:00. Immediately thereafter, feeding was started. The cumulative feed intake was measured at 30 min, 1 hr, 3 hr and 16 hr after the administration. […] The difference between the 4-hydroxyisoleucine administration group and the distilled water for injection (vehicle) administration group was detected according to Student's t test, and p<0.05 was judged as significant.

body weight gain = conditions: high-fat diet-fed mouse; cited from earlier work

For `C[C@@H]([C@H](C)O)[C@H](N)C(=O)O` [4-hydroxyisoleucine], the “Gastric emptying (%)” value (gastric emptying) is listed as “significantly suppressed”, the insulin secretagogue action (insulin secretion) is listed as “shows an insulin secretagogue action” and the antidiabetic action [1] is listed as “an antidiabetic action”. For the same compound, the “food intake (cumulative feed intake)” value (food intake) was “significantly suppressed” and the “suppression of body weight gain” value (body weight gain) was “does not show such action”.
